Results: patent US20220363665A1, “QUINOLINE COMPOUNDS FOR THE TREATMENT OF AUTOIMMUNE DISEASE” (Hoffmann-La Roche Inc., priority 2019, published 2022)

Molecular target: T1, human TLR7 (Homo sapiens, UniProt Q9NYK1)
T1 construct: host or cells: HEK293 (HEK-Blue hTLR7)
T1 sequence (Q9NYK1 27-1049): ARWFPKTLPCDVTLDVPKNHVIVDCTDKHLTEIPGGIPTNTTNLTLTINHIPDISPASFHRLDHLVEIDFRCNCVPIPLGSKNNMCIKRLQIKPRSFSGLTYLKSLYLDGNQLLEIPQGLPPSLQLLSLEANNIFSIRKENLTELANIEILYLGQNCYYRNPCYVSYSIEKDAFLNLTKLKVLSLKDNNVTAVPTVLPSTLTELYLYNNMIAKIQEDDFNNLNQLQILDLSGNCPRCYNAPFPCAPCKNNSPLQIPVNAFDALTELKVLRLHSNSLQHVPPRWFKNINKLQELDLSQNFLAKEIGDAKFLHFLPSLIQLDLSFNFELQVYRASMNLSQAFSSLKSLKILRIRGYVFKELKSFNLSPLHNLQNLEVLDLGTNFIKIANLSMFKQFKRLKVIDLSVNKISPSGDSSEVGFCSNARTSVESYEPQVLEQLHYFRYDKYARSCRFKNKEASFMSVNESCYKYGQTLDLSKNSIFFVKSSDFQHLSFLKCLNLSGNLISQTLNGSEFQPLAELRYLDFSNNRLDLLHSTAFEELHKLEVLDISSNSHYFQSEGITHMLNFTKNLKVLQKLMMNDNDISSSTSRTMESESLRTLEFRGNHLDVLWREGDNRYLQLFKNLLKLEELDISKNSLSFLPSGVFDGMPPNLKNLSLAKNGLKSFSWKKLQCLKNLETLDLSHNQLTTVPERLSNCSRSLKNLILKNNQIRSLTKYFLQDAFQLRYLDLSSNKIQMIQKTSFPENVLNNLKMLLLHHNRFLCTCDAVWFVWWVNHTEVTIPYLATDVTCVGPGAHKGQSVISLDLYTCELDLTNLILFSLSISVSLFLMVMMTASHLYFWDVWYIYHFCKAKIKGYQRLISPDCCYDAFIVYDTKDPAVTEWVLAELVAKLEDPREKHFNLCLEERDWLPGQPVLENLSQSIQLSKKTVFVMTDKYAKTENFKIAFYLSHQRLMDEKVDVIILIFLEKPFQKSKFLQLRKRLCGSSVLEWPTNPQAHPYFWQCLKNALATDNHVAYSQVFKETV
Assay: HEK293-Blue-hTLR-7 cells assay (SEAP reporter, R848 stimulation)
Type: cell-based
Conditions: HEK293-Blue-hTLR7 cells, R848, 20 hrs
Experimental: The following tests were carried out in order to determine the activity of the compounds of formula (I) in HEK293-Blue-hTLR-7/8/9 cells assay.
HEK293-Blue-hTLR-7 Cells Assay:
A stable HEK293-Blue-hTLR-7 cell line was purchased from InvivoGen (Cat. #: hkb-htlr7, San Diego, Calif. USA). These cells were originally designed for studying the stimulation of human TLR7 by monitoring the activation of NF-κB. A SEAP (secreted embryonic alkaline phosphatase) reporter gene was placed under the control of the IFN-β minimal promoter fused to five NF-κB and AP-1-binding sites. The SEAP was induced by activating NF-κB and AP-1 via stimulating HEK-Blue hTLR7 cells with TLR7 ligands. Therefore the reporter expression was declined by TLR7 antagonist under the stimulation of a ligand, such as R848 (Resiquimod), for incubation of 20 hrs. The cell culture supernatant SEAP reporter activity was determined using QUANTI-Blue™ kit (Cat. #: rep-qbl, Invivogen, San Diego, Calif., USA) at a wavelength of 640 nm, a detection medium that turns purple or blue in the presence of alkaline phosphatase.
HEK293-Blue-hTLR7 cells were incubated at a density of 250,000˜450,000 cells/mL in a volume of 170 μL in a 96-well plate in Dulbecco's Modified Eagle's medium (DMEM) containing 4.5 g/L glucose, 50 U/mL penicillin, […], […], 2 mM L-glutamine, 10% (v/v) heat-inactivated fetal bovine serum with addition of 20 μL A test compound in a serial dilution in the presence of final DMSO at 1% and 10 μL of 20 uM R848 in above DMEM, perform incubation under 37° C. in a CO2 incubator for 20 hrs. Then 20 μL of the supernatant from each well was incubated with 180 μQuanti-blue substrate solution at 37° C. for 2 hrs and the absorbance was read at 620˜655 nm using a spectrophotometer. The signalling pathway that TLR7 activation leads to downstream NF-κB activation has been widely accepted, and therefore similar reporter assay was modified for evaluating TLR7 antagonist.

C[C@@H]1CN(c2ccc(C(F)(F)F)c3ncccc23)C[C@H](C(=O)NCC2CNCCO2)O1 (stereo partly drawn) [Example 48, (2R,6R)-6-methyl-N-(morpholin-2-ylmethyl)-4-[8-(trifluoromethyl)-5-quinolyl]morpholine-2-carboxamide]
IC50: 4 nM
